Assay results published in patent publication US20130143804A1, “Islet Amyloid Polypeptide Toxic Oligomer is a Biomarker of Heart or Kidney Failure in Type-2 Diabetes Mellitus” (Trustees of the University of Pennsylvania, priority 2010, published 2013).
Entries after “also recorded” stand apart in the source; their conditions may differ.

Assays:
[1] = system: sarcolemma of cardiac myocytes; assay: Atomic force microscopy of sarcolemma defect depths on cardiac myocytes; assay type: cell-based; conditions: cardiac myocytes incubated with IAPP oligomers
Excerpt: FIG. 16 illustrates distribution of sarcolemma defect depths derived from AFM data.
(§1) Oligomerization of Aβ peptides is associated with Alzheimer's disease, and Aβ and IAPP have the same molecular weight sizes and are about 40% identical at the amino acid level.

[2] = system: isolated rat cardiac myocytes; assay: Calcein leak from isolated rat cardiac myocytes incubated with IAPP oligomers; assay type: cell-based; conditions: incubation for 36 hours
Excerpt: (§2) The level of brain natriuretic peptide (BNP), a molecular marker of hypertrophy, is elevated (by 100±30%) in hearts from pre-diabetic HIP rats vs. age-matched control littermates and further increased with diabetes development (FIG. 12B). […] In contrast, the BNP level is not altered in pre-diabetic UCD-T2DM rats and only increases after the full development of diabetes (FIG. 12B). […] This may indicate that possible pores created in the sarcolemma may be smaller in size than the calcein molecule or significant sarcolemmal damage may require a longer time of incubation.

[3] = system: sarcolemma in cardiac myocytes; assay: Cryo-electron microscopy of cardiac myocytes incubated with IAPP oligomers; assay type: cell-based; conditions: 50 μM IAPP oligomers for 36 hours
Procedure: FIG. 13 illustrates EM images of cardiac myocytes. Control (A-B) vs. incubated with 50 μM IAPP oligomers for 36 hours (C-H).
as §2

[4] = system: rat cardiac myocytes; assay: Ca2+ transients in isolated rat cardiac myocytes incubated with exogenous IAPP, field stimulation; assay type: cell-based
Procedure: FIG. 8 illustrates that exogenous IAPP oligomers increase Ca^2+ transient amplitude in isolated rat cardiac myocytes.(A) Representative experiments in a control (top panel) myocyte and a cell pre-incubated with 50 μM hIAPP (bottom panel). (B-C) Effect of rat (B) and human (C) IAPP on Ca^2+ transient amplitude. […] For each group, measurements were done on ≧6 myocytes from 3 different rats.
Rat cardiac myocytes were incubated with exogenous human (amyloidogenic) and rat (non-amyloidogenic) IAPP and measured Ca2+ transients produced by field-stimulation at various frequencies (FIG. 8A).
as §1

[5] = Oligomer formation controls, dot blot with A-11 oligomer-specific antibody; assay type: physicochemical; conditions: 50 μM recombinant protein incubated at room temperature for 24 hours
Excerpt: Dot blots with the A-11 antibody, which is specific for toxic oligomers, show the presence of toxic oligomers amyloidogenic entities within the heart in patients with overweight/obesity (OW/OB) and diabetes (DM) (FIG. 4). Non-failing (NF) hearts from lean (L), L-NF group (control), lack toxic oligomers. The percentage of strong A-11 immunoreactivity signals (darker dots) is somewhat larger in hearts from the patients with diabetes, which also correlates with the western blot analysis indicating rich accumulation of IAPP entities with molecular weights greater than ˜16 kDa in these hearts. Apparently, IAPP oligomers are equally present in both ischemic (ICM) and non-ischemic (DCM) hearts (FIG. 4). […] Dots on the upper, right side corner show positive (human IAPP) and negative (rat IAPP) controls for oligomer formation (50 μM recombinant protein incubated at room temperature for 24 hours) (FIG. 4). Before the test with A-11 antibody, all protein homogenate samples were incubated with Protein A-coated magnetic beads to extract IgG, a possible source of cross-reactivity.

[6] = system: isolated rat cardiac myocytes; conditions: external human IAPP; Bell et al. 1995; cited from earlier work
[7] = 50 μM IAPP, all stimulation frequencies

Substance | sarcolemma thinning (density of thin patches, AFM) [1] | calcein leak from the cytoplasm [2] | structural modification of the sarcolemma (EM) [3] | Ca2+ transient amplitude ([4]; 5 μM IAPP, monomeric form) | Ca2+ transient amplitude [4, 7] | Ca2+ transient amplitude ([4]; 50 μM IAPP, all stimulation frequencies, listed as Human IAPP) | oligomer formation (A-11 dot blot control) [5] | hypertrophy induction [6]
IAPP oligomers: exogenous oligomers that human IAPP rapidly forms at 50 μM (KCNTATCATQLANFLVHSSNNFGAILSSTNVGSNTY) | induce sarcolemma thinning; also recorded: Density of thin sarcolemma patches is higher | does not reveal release of calcein; also recorded: does not induce significant calcein leak | significant structural modification of the sarcolemma |  |  |  |  | 
human IAPP: human islet amyloid polypeptide, amyloidogenic, SEQ ID NO: 1 KCNTATCATQRLANFLVHSSNNFGAILSSTNVGSNTY (KCNTATCATQLANFLVHSSNNFGAILSSTNVGSNTY; listed as Homo sapiens) |  |  |  | modest increase | marked rise | significantly increased | positive | induces hyperthrophy
rat IAPP: rat islet amyloid polypeptide, non-amyloidogenic, SEQ ID NO: 2 KCNTATCATQRLANFLVRSSNNLGPVLPPTNVGSNTY (KCNTATCATQLANFLVRSSNNLGPVLPPTNVGSNTY; listed as Mus musculus) |  |  |  | modest increase | modest, not significant effect; also recorded: no further effect |  | negative | 
